Experimental data: US5389615A, “Peptides and pharmaceutical composition thereof in the treatment of pain” (British Technology Group Ltd., priority 1988, dated 1995)
Several values for one entry are separate records, joined by “and”; a condition that tells them apart may be missing. Equal values may be shown once. Non-standard residues stand in square brackets, D forms with d. Residues, ends and D or L forms follow the SMILES beside them.

Tests used:
[1] = test system: hyperalgesia evoked by IL-1β; test: Modified Randall-Sellito rat paw pressure test, hyperalgesia evoked by IL-1β; format: in vivo; settings: for DELTA REACTION TIME: 3h after IL-1β, control 23.9; for ED50 antagonising IL-1β evoked hyperalgesia / antagonism of hyperalgesia evoked by IL-1β: rats; for antagonism of hyperalgesia evoked by IL-1β: peptide given before IL-1β
Procedure: The hyperalgesic activity of IL-1β was investigated by a modified Randall-Sellito rat paw pressure test (Ferreira et al, Eur. J. Pharacol. 53, 39-48, 1978).
The IL-1β was given either intraplantar (ipl, injection volume=0.1 ml) or intraperitoneally (ip, injection volume=0.3 ml).
The intensity of hyperalgesia was quantified as the variation of the reaction time (Δ reaction time, sec) obtained by subtracting the value measured 1,2,3 or 4h after administration of the hyperalgesic agent from the pre-injection control reaction time (zero time). The experimenter was unaware of the group treatments.
The vertical bars are standard errors of the means (s.e.m's) of values obtained in groups of 5 rats.
Each symbol or histogram represents the mean response of 5 animals per treatment group. Vertical bars are s.e.m's.
The data are means±s.e.m.'s of 5 animals per treatment group.
Each symbol represents the mean response of 5 animals per treatment group. Vertical bars are s.e.m.'s.
Treatments were given ip, lh before Il-1β, also given ip. There were 5 animals per treatment group.
Delta reaction time was measured 3h after Il-1β administration.
The Control was II-1β (0.05U), given ip.

[2] = test system: hyperalgesia evoked by PGE2; test: Rat paw pressure test, hyperalgesia evoked by PGE2; format: in vivo; settings: for DELTA REACTION TIME: 3 h after PGE2, control 16.8; for ED50 antagonising PGE2 evoked hyperalgesia / antagonism of hyperalgesia evoked by PGE2: rats
[3] = test system: hyperalgesia evoked by DbcAMP; test: Rat paw pressure test, hyperalgesia evoked by DbcAMP; format: in vivo; settings: for % change of delta reaction time vs control (=100%) / DELTA REACTION TIME: 200 μg/150 g rat ip 1 h before DbcAMP (100 μg/paw) ipl; for DELTA REACTION TIME: 3 h after DbcAMP, control 17.2
[4] = test system: hyperalgesia evoked by acetic acid; test: Contorsions evoked by acetic acid, Example 19; format: in vivo, mice; settings: for number of contorsions (median), 10 to 20 min after acetic acid: 30 min before acetic acid
Procedure: The number of contorsions (abdominal constrictions or writhes) was counted in the period between 10 and 20 min after ip challenge with acetic acid by an observer unaware of drug treatment.

febrile rabbits = settings: Richards and Lipton, Peptides 5 (1984) 815-817; cited from earlier work
[5] = in vivo
[6] = test system: hyperalgesia evoked by IL-1β; settings: reference analgesics; cited from earlier work
[7] = 20 μg/150 g rat ip 1h before IL-1β (0.05U) ip
[8] = 50 μg/150 g rat ip 1h before IL-1β (0.05U) ip
[9] = 100 μg/150 g rat ip 1h before IL-1β (0.05U) ip
[10] = 200 μg/150 g rat ip 1h before IL-1β (0.05U) ip
[11] = 20 μg/150 g rat ip 1h before PGE2 ipl
[12] = 50 μg/150 g rat ip 1h before PGE2 ipl
[13] = 100 μg/150 g rat ip 1h before PGE2 ipl
[14] = 200 μg/150 g rat ip 1h before PGE2 ipl

| SMILES | % change of delta reaction time vs control (=100%) [1, 7] [%] | DELTA REACTION TIME [1, 7] [s] | % change of delta reaction time vs control (=100%) [1, 8] [%] | DELTA REACTION TIME [1, 8] [s] | % change of delta reaction time vs control (=100%) [1, 9] [%] | DELTA REACTION TIME [1, 9] [s] | % change of delta reaction time vs control (=100%) [1, 10] [%] | DELTA REACTION TIME [1, 10] [s] | ED50 antagonising IL-1β evoked hyperalgesia [1] [μg/150 g rat] | antagonism of hyperalgesia evoked by IL-1β [1] | % change of delta reaction time vs control (=100%) [2, 11] [%] | DELTA REACTION TIME [2, 11] [s] | % change of delta reaction time vs control (=100%) [2, 12] [%] | DELTA REACTION TIME [2, 12] [s] | % change of delta reaction time vs control (=100%) [2, 13] [%] | DELTA REACTION TIME [2, 13] [s] | % change of delta reaction time vs control (=100%) [2, 14] [%] | DELTA REACTION TIME [2, 14] [s] | ED50 antagonising PGE2 evoked hyperalgesia [2] | antagonism of hyperalgesia evoked by PGE2 [2] | other results |
| --- | --- | --- | --- | --- | --- | --- | --- | --- | --- | --- | --- | --- | --- | --- | --- | --- | --- | --- | --- | --- | --- |
| CC(C)[C@H](NC(=O)[C@H]1CCCN1C(=O)[C@@H](N)CCCCN)C(=O)O [K(D)PV, Lys-D-Pro-Val] (H-Lys-[dP]-Val-OH) | -23.9 | 18.2 ± 0.4 | -64.4 | 8.5 ± 0.6 | 84.1 | 3.8 ± 0.7 | -88.3 | 2.8 ± 0.6 | 40 | more potent antagonists of I1-1β-evoked hyperalgesia than Lys-D-Pro-Thr | -16.7 | 14.0 ± 0.4 | -20.2 | 13.4 ± 0.4 | -46±4 | 9.0 ± 0.2 | -64.3 | 6.0 ± 0.3 | ~140 μg/150 g rat | antagonize hyperalgesia evoked by PGE2 | % change of delta reaction time vs control (=100%) [3]: -7.0%; DELTA REACTION TIME [3]: 16.0 ± 0.2 s; % reductions from control values in mice injected with saline ([4]; 2 mg/kg ip): -33%; number of contorsions (median), 10 to 20 min after acetic acid ([4]; 2 mg/kg ip): 19; % reductions from control values in mice injected with saline ([4]; 10 mg/kg ip): -38%; number of contorsions (median), 10 to 20 min after acetic acid ([4]; 10 mg/kg ip): 17; % reductions from control values in mice injected with saline ([4]; 30 mg/kg ip): -45%; number of contorsions (median), 10 to 20 min after acetic acid ([4]; 30 mg/kg ip): 15.5; % reductions from control values in mice injected with saline ([4]; 100 mg/kg ip): -74%; number of contorsions (median), 10 to 20 min after acetic acid ([4]; 100 mg/kg ip): 7; % reductions from control values in mice injected with saline ([4]; 100 mg/kg po): -52%; number of contorsions (median), 10 to 20 min after acetic acid ([4]; 100 mg/kg po): 13; analgesic activity against hyperalgesia evoked by acetic acid, given ip ([4]; ip): dose-related analgesic activity |
| CC(C)[C@H](NC(=O)[C@@H]1CCCN1C(=O)[C@@H](N)CCCCN)C(=O)O [KPV, Lys-Pro-Val] (H-Lys-Pro-Val-OH) | -21.3 | 18.8 ± 0.3 | -52.7 | 11.3 ± 0.5 | -69.9 | 7.2 ± 0.6 | -83.7 | 3.9 ± 0.3 | 70 | more potent antagonists of I1-1β-evoked hyperalgesia than Lys-D-Pro-Thr | -11.3 | 14.9 ± 0.4 | -22.6 | 13.0 ± 0.3 | -41.1 | 9.9 ± 0.2 | -53.6 | 7.8 ± 0.6 | approximately 170 μg/150 g rat | antagonize hyperalgesia evoked by PGE2 | % change of delta reaction time vs control (=100%) [3]: -8.1%; DELTA REACTION TIME [3]: 15.8 ± 0.3 s; antipyretic effect (febrile rabbits): antipyretic effect |
| CN1CC[C@]23c4c5ccc(O)c4O[C@H]2[C@@H](O)C=C[C@H]3[C@H]1C5 [Morphine, morphine] | – | – | – | – | – | – | – | – | – | – | – | – | – | – | – | – | – | – | – | – | antagonism of hyperalgesia evoked by DbcAMP ([3]; rat, in vivo): effective antagonist; reaction time difference, hot plate [5]: 3.52 s and 5.55 s; antagonism of on-going hyperalgesia [6]: able to antagonize on-going hyperalgesia |
| Cc1c(N(C)CS(=O)(=O)O)c(=O)n(-c2ccccc2)n1C [dipyrone] | – | – | – | – | – | – | – | – | – | – | – | – | – | – | – | – | – | – | – | – | antagonism of on-going hyperalgesia [6]: able to antagonize on-going hyperalgesia |
